Source: patent US9796725B2, “Pyrazolopyrimidinyl inhibitors of ubiquitin-activating enzyme” (Millennium Pharmaceuticals, Inc., priority 2012, dated 2017)

Columns and labels:
[1] = tested on: mouse acute myeloid leukemia (AML model); conditions: cited from earlier work
recombinant human UAE = recombinant human UAE (Homo sapiens (Human), UniProt P22314); test: Ubiquitin Activating Enzyme (UAE) HTRF Assay
Sequence of recombinant human UAE (P22314 whole entry): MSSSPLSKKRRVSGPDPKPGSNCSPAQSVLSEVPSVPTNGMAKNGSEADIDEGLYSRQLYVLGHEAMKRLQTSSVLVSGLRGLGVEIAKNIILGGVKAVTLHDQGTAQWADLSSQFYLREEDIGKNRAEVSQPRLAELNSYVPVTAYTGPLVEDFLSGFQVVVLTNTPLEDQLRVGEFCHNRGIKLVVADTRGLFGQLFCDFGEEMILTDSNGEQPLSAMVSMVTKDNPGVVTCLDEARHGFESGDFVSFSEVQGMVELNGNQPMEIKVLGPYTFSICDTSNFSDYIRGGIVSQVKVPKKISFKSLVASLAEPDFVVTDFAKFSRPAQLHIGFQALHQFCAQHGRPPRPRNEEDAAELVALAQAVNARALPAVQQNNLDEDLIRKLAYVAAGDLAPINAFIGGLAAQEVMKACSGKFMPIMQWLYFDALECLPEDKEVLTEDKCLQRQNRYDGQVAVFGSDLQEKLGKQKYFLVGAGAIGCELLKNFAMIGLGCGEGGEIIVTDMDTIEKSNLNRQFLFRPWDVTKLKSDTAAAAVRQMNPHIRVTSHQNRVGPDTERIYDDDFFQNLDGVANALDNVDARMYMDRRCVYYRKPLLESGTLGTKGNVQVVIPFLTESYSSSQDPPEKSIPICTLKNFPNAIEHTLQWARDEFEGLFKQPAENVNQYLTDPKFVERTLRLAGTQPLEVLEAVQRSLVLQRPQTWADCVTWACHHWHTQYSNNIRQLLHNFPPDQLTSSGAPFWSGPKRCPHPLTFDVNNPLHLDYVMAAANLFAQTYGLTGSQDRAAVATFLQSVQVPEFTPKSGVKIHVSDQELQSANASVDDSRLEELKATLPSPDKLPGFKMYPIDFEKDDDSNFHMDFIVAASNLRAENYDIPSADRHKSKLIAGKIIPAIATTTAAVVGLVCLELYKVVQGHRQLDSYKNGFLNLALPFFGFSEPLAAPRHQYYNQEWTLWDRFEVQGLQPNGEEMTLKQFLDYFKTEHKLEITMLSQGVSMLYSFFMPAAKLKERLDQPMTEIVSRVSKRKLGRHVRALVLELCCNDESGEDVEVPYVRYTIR
Protocol: After incubation for 120 minutes, quantification of the FRET is performed on the Pherostar (BMG).
For compounds whose values are marked with an asterisk (*), mouse UAE was used. For all other compounds, human UAE was used.

IC50 (recombinant human UAE) | SMILES | anti-tumor activity [1]
 | O=C1NN(c2ccc(F)c(Cl)c2)C(=O)/C1=C\c1ccc([N+](=O)[O-])o1 [PYZD-4409] | demonstrated anti-tumor activity
< 0.01 µM | COc1ccc(C(C)(C)C)cc1-c1cc2nccc(N[C@@H]3C[C@H](COS(N)(=O)=O)[C@@H](O)[C@H]3O)n2n1 (racemic) [Compound I-063, (rac)-((1R,2R,3S,4R)-4-{[2-(5-tert-butyl-2-methoxyphenyl)pyrazolo[1,5-a]pyrimidin-7-yl]amino}-2,3-dihydroxycyclopentyl)methyl rel-sulfamate] | 
< 0.01 µM | NS(=O)(=O)OC[C@H]1C[C@@H](Nc2ccnc3cc(-c4cccc5cc(C(=O)O)ccc45)nn23)[C@H](O)[C@@H]1O (relative stereo) [Compound I-099, (rac)-rel-5-[7-({(1R,2S,3R,4R)-2,3-dihydroxy-4-[(sulfamoyloxy)methyl]cyclopentyl}amino)pyrazolo[1,5-a]pyrimidin-2-y1]-2-naphthoic acid] | 
